Test results taken from US11117907B2, “Curcuminoid-inspired synthetic compounds as anti-tumor agents” (University of North Florida Board of Trustees, priority 2017, dated 2021).

SMILES	melting point [°C]
O=C(/C=C/c1ccc(F)cc1)/C(F)=C(O)/C=C/c1ccc(F)cc1 [compound 13 of FIG. 2, (1E,4E,6E)-4-Fluoro-1,7-bis(4-fluorophenyl)-5-hydroxy-hepta-1,4,6-trien-3-one]	152 to 153
O=C(/C=C/c1ccc(C(F)(F)F)cc1)C(F)(F)C(=O)/C=C/c1ccc(C(F)(F)F)cc1 [compound 21 of FIG. 2, (1E,6E)-4,4-Difluoro-1,7-bis(4-trifluoromethyl-phenyl)hepta-1,6-diene-3,5-dione]	75 to 76
O=C(/C=C/c1ccc(F)c(F)c1F)/C=C(O)\C=C\c1ccc(F)c(F)c1F [compound 21 of FIG. 35, (1E,4E,6E)-5-Hydroxy-1,7-bis(2,3,4-trifluorophenyl)hepta-1,4,6-trien-3-one]	156 to 158
COc1cc(F)c(/C=C/C(=O)/C=C(O)\C=C\c2cc(OC)c(OC)cc2F)cc1OC [compound 15 of FIG. 2, (1E,4E,6E)-5-Hydroxy-1,7-bis(3,4-dimethoxy-6-fluorophenyl)hepta-1,4,6-trien-3-one]	154 to 156
COc1ccc(/C=C/C(=O)/C=C(O)\C=C\c2ccc(OC)c(OC)c2OC)c(OC)c1OC [compound 7 of FIG. 35, (1E,4E,6E)-5-Hydroxy-1,7-bis(2,3,4-trimethoxyphenyl)hepta-1,4,6-trien-3-one]	104 to 106
COc1cc(F)c(/C=C/C(=O)C(F)C(=O)/C=C/c2cc(OC)c(OC)cc2F)cc1OC [compound 18 of FIG. 2, (1E,6E)-4-Fluoro-1,7-bis(3,4-dimethoxy-6-fluorophenyl)hepta-1,6-diene-3,5-dione]	> 260
COc1ccc(/C=C/C(=O)/C(F)=C(O)/C=C/c2ccc(OC)c(OC)c2)cc1OC [compound 8 of FIG. 2, (1E,4E,6E)-4-Fluoro-5-hydroxy-1,7-bis(3,4-dimethoxyphenyl)hepta-1,4,6-trien-3-one]	145 to 146
COc1ccc(/C=C/C(=O)C(F)(F)C(=O)/C=C/c2ccc(OC)c(OC)c2)cc1OC [compound 7 of FIG. 2, (1E,6E)-4,4-Difluoro-1,7-bis(3,4-dimethoxyphenyl)hepta-1,6-diene-3,5-dione]	148 to 149
COc1cc(F)c(C=Cc2cc(C=Cc3cc(OC)c(OC)cc3F)n(-c3ccc(C#N)cc3)n2)cc1OC [compound 26 of FIG. 43, 3,5-bis-(6-Fluoro-3,4-dimethoxystyryl)-1-(4-cyanophenyl)pyrazole]	91 to 93
O=C(/C=C/c1cccc(OC(F)(F)F)c1)/C=C(O)\C=C\c1cccc(OC(F)(F)F)c1 [compound 15 of FIG. 35, (1E,4E,6E)-5-Hydroxy-1,7-bis(3-trifluoromethoxyphenyl)hepta-1,4,6-trien-3-one]	68 to 70
COc1cc(F)c(/C=C/C(=O)/C(F)=C(O)/C=C/c2cc(OC)c(OC)cc2F)cc1OC [compound 17 of FIG. 2, (1E,4E,6E)-4-Fluoro-5-hydroxy-1,7-bis(3,4-dimethoxy-6-fluorophenyl)hepta-1,4,6-trien-3-one]	148 to 150
COc1cc(F)c(/C=C/C(=O)C(F)(F)C(=O)/C=C/c2cc(OC)c(OC)cc2F)cc1OC [compound 16 of FIG. 2, (1E,6E)-4,4-Difluoro-1,7-bis(3,4-dimethoxy-6-fluorophenyl)hepta-1,6-diene-3,5-dione]	162 to 163
O=C(/C=C/c1ccc(F)cc1)C(F)(F)C(=O)/C=C/c1ccc(F)cc1 [compound 12 of FIG. 2, (1E,6E)-4,4-Difluoro-1,7-bis(4-fluorophenyl)hepta-1,6-diene-3,5-dione]	72 to 73
O=C(/C=C/c1csc2ccccc12)/C=C(O)\C=C\c1csc2ccccc12 [compound 7 of Example 5, (1E,4E,6E)-5-Hydroxy-1,7-bis(benzo[b]thiophen-3-yl)hepta-1,4,6-trien-3-one]	159 to 160
O=C(/C=C/c1ccc(C(F)(F)F)cc1)/C(F)=C(O)/C=C/c1ccc(C(F)(F)F)cc1 [compound 22 of FIG. 2, (1E,4E,6E)-4-Fluoro-1,7-bis(4-trifluoromethyl-phenyl)-5-hydroxy-hepta-1,4,6-trien-3-one]	144 to 146
O=C(/C=C/c1ccc(OCc2ccccc2)c(OCc2ccccc2)c1)/C=C(O)\C=C\c1ccc(OCc2ccccc2)c(OCc2ccccc2)c1 [compound 5 of FIG. 35, (1E,4E,6E)-5-Hydroxy-1,7-bis(3,4-dibenzyloxyphenyl)hepta-1,4,6-trien-3-one]	150 to 153
O=C(/C=C/c1ccc(OC(F)(F)F)cc1)/C=C(O)\C=C\c1ccc(OC(F)(F)F)cc1 [compound 17 of FIG. 35, (1E,4E,6E)-5-Hydroxy-1,7-bis(4-trifluoromethoxyphenyl)hepta-1,4,6-trien-3-one]	108 to 111
COc1cc(F)c(C=Cc2cc(C=Cc3cc(OC)c(OC)cc3F)n(-c3ccc(OC(F)(F)F)cc3)n2)cc1OC [compound 23 of FIG. 43, 3,5-bis-(6-Fluoro-3,4-dimethoxystyryl)-1-(4-trifluoromethoxyphenyl)pyrazole]	80 to 83
COc1cc(F)c(C=Cc2cc(C=Cc3cc(OC)c(OC)cc3F)n(-c3cccc(C(F)(F)F)c3)n2)cc1OC [compound 24 of FIG. 43, 3,5-bis-(6-Fluoro-3,4-dimethoxystyryl)-1-(3-trifluoromethylphenyl)pyrazole]	130 to 134
O=C(/C=C/c1ccc(C(F)(F)F)cc1)/C=C(O)\C=C\c1ccc(C(F)(F)F)cc1 [compound 20 of FIG. 2, (1E,4E,6E)-1,7-Bis(4-trifluoromethyl-phenyl)-5-hydroxy-hepta-1,4,6-trien-3-one]	153 to 154
O=C(/C=C/c1cc2ccccc2o1)/C=C(O)\C=C\c1cc2ccccc2o1 [compound 9 of Example 5, (1E,4E,6E)-5-Hydroxy-1,7-bis(benzo[b]furan-2-yl)hepta-1,4,6-trien-3-one]	178 to 180
COc1cc(F)c(C=Cc2cc(C=Cc3cc(OC)c(OC)cc3F)n(-c3cc(F)cc(F)c3)n2)cc1OC [compound 25 of FIG. 43, 3,5-bis-(6-Fluoro-3,4-dimethoxystyryl)-1-(3,5-difluorophenyl) pyrazole]	115 to 117
COc1cc(/C=C/C(=O)/C(F)=C(O)/C=C/c2ccc(O)c(OC)c2)ccc1O [compound 4 of FIG. 2, (1E,4E,6E)-4-Fluoro-5-hydroxy-1,7-bis(4-hydroxy-3-methoxyphenyl)hepta-1,4,6-trien-3-one]	154 to 155
COc1ccc(/C=C/C(=O)/C=C(O)\C=C\c2ccc(OC)c(OCc3ccccc3)c2)cc1OCc1ccccc1 [compound 3 of FIG. 35, (1E,4E,6E)-5-Hydroxy-1,7-bis(3-benzyloxy-4-methoxyphenyl)hepta-1,4,6-trien-3-one]	153 to 155
COc1cc(F)c(C=Cc2cc(C=Cc3cc(OC)c(OC)cc3F)n(-c3ccccc3)n2)cc1OC [compound 22 of FIG. 43, 3,5-bis-(6-Fluoro-3,4-dimethoxystyryl)-1-phenylpyrazole]	142 to 144

Next, values leading:

melting point [°C]	SMILES
169 to 170	Fc1ccc(C=Cc2cc(C=Cc3ccc(F)cc3)n(-c3ccc(F)c(F)c3)n2)cc1 [compound 34 of FIG. 43, 3,5-bis-(4-Fluorostyryl)-1-(3,4-difluorophenyl)pyrazole]
137 to 139	FC(F)(F)c1ccc(C=Cc2cc(C=Cc3ccc(C(F)(F)F)cc3)n(-c3ccccc3)n2)cc1 [compound 37 of FIG. 43, 3,5-bis-(4-Trifluoromethylstyryl)-1-phenylpyrazole]
140 to 142	COc1cc(C=Cc2cc(C=Cc3cc(OC)c(OC)c(OC)c3)n(-c3ccc(OC(F)(F)F)cc3)n2)cc(OC)c1OC [compound 42 of FIG. 43, 3,5-bis-(3,4,5-Trimethoxy-styryl)-1-(4-trifluoromethoxyphenyl) pyrazole]
98 to 100	Fc1ccc(C=Cc2cc(C=Cc3ccc(F)cc3)n(-c3cccc(C(F)(F)F)c3)n2)cc1 [compound 33 of FIG. 43, 3,5-bis-(4-Fluorostyryl)-1-(3-trifluoromethylphenyl)pyrazole]
121 to 122	FC(F)(F)Sc1ccc(C=Cc2cc(C=Cc3ccc(SC(F)(F)F)cc3)n(-c3cccc(C(F)(F)F)c3)n2)cc1 [compound 29 of FIG. 43, 3,5-bis-(4-trifluoromethylthiostyryl)-1-(3-trifluoromethylphenyl)pyrazole]
165 to 167	FC(F)(F)Sc1ccc(C=Cc2cc(C=Cc3ccc(SC(F)(F)F)cc3)on2)cc1 [compound 30 of FIG. 43, 3,5-bis-(4-Trifluoromethylthiostyryl)-isoxazole]
119 to 121	FC(F)(F)Sc1ccc(C=Cc2cc(C=Cc3ccc(SC(F)(F)F)cc3)n(-c3ccccc3)n2)cc1 [compound 28 of FIG. 43, 3,5-bis-(4-Trifluoromethylthiostyryl)-1-phenylpyrazole]
155 to 156	Fc1ccc(C=Cc2cc(C=Cc3ccc(F)cc3)n(-c3ccc(OC(F)(F)F)cc3)n2)cc1 [compound 32 of FIG. 43, 3,5-bis-(4-Fluorostyryl)-1-(4-trifluoromethoxyphenyl)pyrazole]
109 to 111	Fc1ccc(C=Cc2cc(C=Cc3ccc(F)cc3)n(-c3ccccc3)n2)cc1 [compound 31 of FIG. 43, 3,5-bis-(4-Fluorostyryl)-1-phenylpyrazole]
144 to 146	COc1cc(C=Cc2cc(C=Cc3cc(OC)c(OC)c(OC)c3)n(-c3ccccc3)n2)cc(OC)c1OC [compound 41 of FIG. 43, 3,5-bis-(3,4,5-Trimethoxy-styryl)-1-phenylpyrazole]
136 to 137	COc1ccc(C=Cc2cc(C=Cc3ccc(OC)c(OC)c3OC)on2)c(OC)c1OC [compound 40 of FIG. 43, 3,5-bis-(2,3,4-Trimethoxystyryl)-isoxazole]
209 to 211	N#Cc1ccc(-n2nc(C=Cc3ccc(F)cc3)cc2C=Cc2ccc(F)cc2)cc1 [compound 35 of FIG. 43, 3,5-bis-(4-Fluorostyryl)-1-(4-cyanophenyl)pyrazole]
